Series [1] concerns the target ATP-dependent translocase ABCB1 (Homo sapiens, UniProt P08183). The series can be described thus: Modulation of P-gp (unknown origin) transfected in human MDA435/LCC6MDR cells assessed as reversible of paclitaxel resistance measured as IC50 for paclitaxel at 1 uM after 5 days by CellTiter 96 Aqueous assay relative to PTX alone treated cell. The format is cell-based. The conditions noted are these: 120 h.

A short description of series [2]: Cytotoxicity against human MDA435/LCC6MDR cells after 3 days by MTS assay. In kind it is functional, cell-based. The conditions noted are these: 72 h. (Tetrazolium assays rely on reduction of a dye to a coloured formazan, in cell work by metabolically active cells.)
The nature of series [3]: Cytotoxicity against human LCC-6 cells after 3 days by MTS assay. The conditions noted are these: LCC-6, 72 h. In kind it is functional, cell-based.
Another series has as its system L929. The series can be described thus: Cytotoxicity against mouse L929 cells after 3 days by MTS assay. In kind it is cell-based. The conditions noted are these: L929, 72 h.
Series [4] in a line: Modulation of P-gp (unknown origin) transfected in human MDA435/LCC6MDR cells assessed as reversible of paclitaxel resistance measured as IC50 for paclitaxel at 1 uM after 5 days by CellTiter 96 Aqueous assay.

For orientation: IC50 means the concentration that inhibits the measured activity by half.

ATP-dependent translocase ABCB1, sequence (P08183 whole entry): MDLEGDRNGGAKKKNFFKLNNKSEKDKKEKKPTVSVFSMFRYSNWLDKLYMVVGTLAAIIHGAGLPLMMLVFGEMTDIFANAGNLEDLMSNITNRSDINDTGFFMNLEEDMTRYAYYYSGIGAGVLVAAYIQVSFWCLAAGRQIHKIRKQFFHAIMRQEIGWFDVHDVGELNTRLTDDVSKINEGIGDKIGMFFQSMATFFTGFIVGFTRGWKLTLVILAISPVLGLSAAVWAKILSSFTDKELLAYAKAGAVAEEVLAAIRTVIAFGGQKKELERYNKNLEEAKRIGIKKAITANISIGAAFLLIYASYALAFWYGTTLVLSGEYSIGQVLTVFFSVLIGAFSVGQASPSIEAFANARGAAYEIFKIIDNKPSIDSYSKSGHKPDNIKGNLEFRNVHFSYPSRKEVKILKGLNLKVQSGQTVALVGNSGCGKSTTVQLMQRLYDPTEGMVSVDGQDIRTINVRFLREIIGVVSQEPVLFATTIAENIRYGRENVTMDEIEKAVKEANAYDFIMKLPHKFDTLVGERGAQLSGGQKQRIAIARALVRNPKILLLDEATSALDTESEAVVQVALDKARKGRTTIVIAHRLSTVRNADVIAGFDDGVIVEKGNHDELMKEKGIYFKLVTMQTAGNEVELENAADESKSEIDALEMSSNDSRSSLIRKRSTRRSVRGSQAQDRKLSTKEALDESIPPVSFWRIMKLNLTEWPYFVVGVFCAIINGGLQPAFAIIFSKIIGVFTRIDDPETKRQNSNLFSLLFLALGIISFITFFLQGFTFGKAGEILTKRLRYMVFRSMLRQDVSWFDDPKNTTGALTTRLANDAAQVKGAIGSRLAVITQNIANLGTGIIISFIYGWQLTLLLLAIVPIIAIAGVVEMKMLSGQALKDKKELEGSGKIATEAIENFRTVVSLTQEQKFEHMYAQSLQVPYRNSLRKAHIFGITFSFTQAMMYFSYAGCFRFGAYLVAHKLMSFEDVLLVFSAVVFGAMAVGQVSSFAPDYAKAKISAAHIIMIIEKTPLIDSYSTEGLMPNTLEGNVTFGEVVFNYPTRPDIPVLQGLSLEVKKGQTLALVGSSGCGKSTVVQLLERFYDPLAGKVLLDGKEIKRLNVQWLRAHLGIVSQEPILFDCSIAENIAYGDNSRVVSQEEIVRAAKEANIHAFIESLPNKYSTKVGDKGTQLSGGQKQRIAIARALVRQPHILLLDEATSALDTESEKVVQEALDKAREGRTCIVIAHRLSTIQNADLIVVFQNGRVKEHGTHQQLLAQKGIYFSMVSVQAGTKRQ

As for `COc1ccc(C(=O)O[C@@H]2Cc3c(OC)cc(OC)cc3O[C@@H]2c2cc(OC)c(OC)c(OC)c2)cc1`, in series [1], the Ratio came out at 1. For the same compound, the IC50 was > 84 µM in series [2], > 100 µM in series [3] and > 100 µM in the series with L929.

For `COc1cc(OC)c2c(c1)O[C@H](c1cc(OC)c(OC)c(OC)c1)[C@H](OC(=O)CCc1ccc(OC)c(OC)c1)C2`, the Ratio in series [1] is listed as 7.6.

As for `COc1ccc(/C=C/C(=O)O[C@@H]2Cc3c(OC)cc(OC)cc3O[C@@H]2c2cc(OC)c(OC)c(OC)c2)cc1`, in series [1], the Ratio stood at 6.6. In addition, the IC50 (in series [2]; in series [3]; in the series with L929) was > 100 µM each time.

`COc1cc(OC)c2c(=O)c(OCCOC(=O)/C=C/c3cc(OC)c(OC)c(OC)c3)c(-c3ccc(OC)c(OC)c3)oc2c1`: the Ratio in series [1] was 11.2.

With `COc1ccc(C(=O)O[C@H]2Cc3c(OC)cc(OC)cc3O[C@@H]2c2cc(OC)c(OC)c(OC)c2)cc1`, the Ratio in series [1] came to 2.2.

Consider `COc1cc(OC)c2c(c1)O[C@H](c1cc(OC)c(OC)c(OC)c1)[C@@H](OC(=O)c1ccc(F)c(NC(=O)c3cc(OC)c(OC)c(OC)c3)c1)C2=O`, for which the Ratio in series [1] is given as 4.

With `COc1ccc(/C=C/C(=O)O[C@H]2Cc3c(OC)cc(OC)cc3O[C@@H]2c2cc(OC)c(OC)c(OC)c2)cc1`, the Ratio in series [1] is recorded as 7.8.

As for `COc1ccc(CCC(=O)O[C@@H]2Cc3c(OC)cc(OC)cc3O[C@@H]2c2cc(OC)c(OC)c(OC)c2)cc1`, in series [1], the Ratio turned out to be 3.6.

As to `COc1cc(OC)c2c(c1)O[C@H](c1cc(OC)c(OC)c(OC)c1)[C@H](OC(=O)c1ccc(F)c(NC(=O)/C=C/c3ccc(OC)c(OC)c3)c1)C2`, the Ratio in series [1] is reported as 17.9. The IC50 in series [2] is > 100 µM; in series [4] it was 0.0081 µM; in series [3], > 100 µM; in the series with L929, > 100 µM.

Consider `COc1cccc(C(=O)O[C@@H]2Cc3c(OC)cc(OC)cc3O[C@@H]2c2cc(OC)c(OC)c(OC)c2)c1`, for which the Ratio in series [1] amounted to 3.2. The IC50 (in series [2]; in series [3]; with L929) was > 100 µM each time.

`COc1cc(OC)c2c(c1)O[C@H](c1cc(OC)c(OC)c(OC)c1)[C@@H](OC(=O)/C=C/c1cc(OC)c(OC)c(OC)c1)C2`: the IC50 (in series [2]; in series [3]; with L929) was > 100 µM throughout.

`COc1cc(OC)c2c(c1)O[C@H](c1cc(OC)c(OC)c(OC)c1)[C@H](OC(=O)Cc1ccc(OC)c(OC)c1)C2`: the Ratio in series [1] is listed as 4.5.

For `COc1ccc(C(=O)O[C@H]2C(=O)c3c(OC)cc(OC)cc3O[C@@H]2c2cc(OC)c(OC)c(OC)c2)cc1`, the Ratio in series [1] was 3.

Take `COc1cc(OC)c2c(c1)O[C@H](c1cc(OC)c(OC)c(OC)c1)[C@@H](OC(=O)c1ccc(F)c(NC(=O)/C=C/c3ccc(OC)c(OC)c3)c1)C2=O`: in series [1], the Ratio was found to be 10. Further, the concentration for half-maximal inhibition (IC50) in series [4] was found to be 0.0144 µM.

Consider `COc1cc(OC)c2c(c1)O[C@H](c1cc(OC)c(OC)c(OC)c1)[C@H](OC(=O)c1ccc(F)c(N(C)C)c1)C2`, for which the Ratio in series [1] is on record as 4. Further, the IC50 (in series [2]; in series [3]; with L929) was > 100 µM each time.

For `COc1cc(OC)c2c(c1)O[C@H](c1cc(OC)c(OC)c(OC)c1)[C@@H](OC(=O)/C=C/c1ccc(OC)c(OC)c1)C2=O`, the Ratio in series [1] was 5.5. In addition, the IC50 in series [4] was determined as 0.0262 µM.

For `COc1ccc(C(=O)Nc2cc(C(=O)Nc3cc(C(=O)O[C@@H]4Cc5c(OC)cc(OC)cc5O[C@@H]4c4cc(OC)c(OC)c(OC)c4)ccc3F)ccc2F)cc1`, in series [1], the Ratio is 9.2. In series [4], the 50% inhibitory concentration (IC50) came to 0.0157 µM.

As to `COc1cc(OC)c2c(c1)O[C@H](c1cc(OC)c(OC)c(OC)c1)[C@@H](OC(C)=O)C2=O`, in series [1], the Ratio is recorded as 1.4.

As for `COc1cc(OC)c2c(c1)O[C@H](c1cc(OC)c(OC)c(OC)c1)[C@H](OC(=O)Cc1cc(OC)c(OC)c(OC)c1)C2`, in series [1], the Ratio is 5.8. The 50% inhibitory concentration (IC50) in series [4] was found to be 0.025 µM.

Take `COc1cc(OC)c2c(c1)O[C@H](c1cc(OC)c(OC)c(OC)c1)[C@@H](OC(=O)c1ccc(OC)c(OC)c1)C2=O`: the Ratio in series [1] turned out to be 4.

As to `COc1cc(OC)c2c(c1)O[C@H](c1cc(OC)c(OC)c(OC)c1)[C@H](OC(=O)c1ccc(F)c(NC(=O)/C=C/c3cc(OC)c(OC)c(OC)c3)c1)C2`, the Ratio in series [1] is reported as 23.3. Also, the half-maximal inhibitory concentration (IC50) (in series [2]; in series [3]; in the series on L929) was > 100 µM in each case.

Regarding `COc1cc(OC)c2c(c1)O[C@H](c1cc(OC)c(OC)c(OC)c1)[C@@H](OC(=O)/C=C/c1cc(OC)c(OC)c(OC)c1)C2=O`, the Ratio in series [1] was determined as 9.1. The IC50 in series [4] is 0.0159 µM.

Turning to `COc1ccc(C(=O)OCCOc2c(-c3ccc(OC)c(OC)c3)oc3cc(OC)cc(OC)c3c2=O)cc1`, the Ratio in series [1] is reported as 6.

Regarding `CCOc1cc(C(=O)O[C@@H]2Cc3c(OC)cc(OC)cc3O[C@@H]2c2cc(OC)c(OC)c(OC)c2)cc(OCC)c1OCC`, the Ratio in series [1] turned out to be 1.3. In addition, the half-inhibitory concentration (IC50) (in series [2]; in series [3]; in the series on L929) was > 100 µM throughout.

As for `COc1cc(OC)c2c(c1)O[C@H](c1cc(OC)c(OC)c(OC)c1)[C@H](OC(=O)c1cccc(F)c1)C2`, in series [1], the Ratio is reported as 1.5. The IC50 (in series [2]; in series [3]; in the series with L929) was > 100 µM throughout.

For `COc1ccc(/C=C/C(=O)O[C@H]2C(=O)c3c(OC)cc(OC)cc3O[C@@H]2c2cc(OC)c(OC)c(OC)c2)cc1`, the Ratio in series [1] amounted to 3.6.

As for `COc1cc(OC)c2c(c1)O[C@H](c1cc(OC)c(OC)c(OC)c1)[C@@H](OC(=O)c1cc(OC)c(OC)c(OC)c1)C2=O`, the Ratio in series [1] is on record as 3.3.

For `COc1cc(OC)c2c(c1)O[C@H](c1cc(OC)c(OC)c(OC)c1)[C@@H](OC(=O)c1ccc(F)c(NC(=O)c3ccc(OC)c(OC)c3)c1)C2=O`, in series [1], the Ratio was 15.4.

In the case of `COc1cc(OC)c2c(c1)O[C@H](c1cc(OC)c(OC)c(OC)c1)[C@H](OC(=O)c1cc(OC)c(OC)c(OC)c1)C2`, the Ratio in series [1] is listed as 6.9. Further, the IC50 is > 100 µM in series [2], 0.021 µM in series [4], > 100 µM in series [3] and > 100 µM in the series on L929.

With `COc1cc(OC)c2c(c1)O[C@H](c1cc(OC)c(OC)c(OC)c1)[C@@H](OC(=O)c1ccc(F)c(NC(=O)/C=C/c3cc(OC)c(OC)c(OC)c3)c1)C2=O`, in series [1], the Ratio is reported as 5.2.

With `COc1cc(OC)c2c(c1)O[C@H](c1cc(OC)c(OC)c(OC)c1)[C@H](OC(=O)c1ccc(OC)c(OC)c1)C2`, in series [1], the Ratio is given as 7.4. Moreover, the IC50 (in series [2]; in series [3]; in the series with L929) was > 100 µM throughout.

As to `COc1cc(O)c2c(=O)c(OC(=O)c3cc(OC)c(OC)c(OC)c3)c(-c3ccc(OC)c(OC)c3)oc2c1`, the Ratio in series [1] is 2.1.

As for `COc1cc(OC)c2c(c1)O[C@H](c1cc(OC)c(OC)c(OC)c1)[C@@H](OC(=O)c1ccc(OC)c(OC)c1)C2`, the Ratio in series [1] was determined as 12.1.

Regarding `C=CCOc1cc(C(=O)O[C@@H]2Cc3c(OC)cc(OC)cc3O[C@@H]2c2cc(OC)c(OC)c(OC)c2)cc(OCC=C)c1OCC=C`, in series [1], the Ratio is on record as 12.1. Further, the IC50 (in series [2]; in series [3]; with L929) was > 100 µM throughout.

Take `COc1ccc(CC(=O)O[C@@H]2Cc3c(OC)cc(OC)cc3O[C@@H]2c2cc(OC)c(OC)c(OC)c2)cc1`: the Ratio in series [1] was 4.2.

With `COc1cc(OC)c2c(c1)O[C@H](c1cc(OC)c(OC)c(OC)c1)[C@H](OC(=O)c1ccc(F)cc1)C2`, the Ratio in series [1] is reported as 2.7. Moreover, the IC50 (in series [2]; in series [3]; in the series with L929) was > 100 µM each time.

Consider `C=CCOc1cc(C(=O)O[C@H]2C(=O)c3c(OC)cc(OC)cc3O[C@@H]2c2cc(OC)c(OC)c(OC)c2)cc(OCC=C)c1OCC=C`, for which, in series [1], the Ratio worked out at 4.6.

Take `COc1cc(OC)c2c(c1)O[C@H](c1cc(OC)c(OC)c(OC)c1)[C@@H](O)C2`: the Ratio in series [1] is 1.1.

As for `COc1cc(OC)c2c(c1)O[C@H](c1cc(OC)c(OC)c(OC)c1)[C@H](OC(=O)c1ccc(F)c(NC(=O)c3ccc(F)c(NC(=O)c4ccc(OC)c(OC)c4)c3)c1)C2`, the Ratio in series [1] was 10.6.

Take `COc1cc(OC)c2c(c1)O[C@H](c1cc(OC)c(OC)c(OC)c1)[C@@H](OC(=O)c1cc(OC)c(OC)c(OC)c1)C2`: the Ratio in series [1] came out at 3.

In the case of `COc1cc(OC)c2c(c1)O[C@H](c1cc(OC)c(OC)c(OC)c1)[C@H](OC(=O)CCc1cc(OC)c(OC)c(OC)c1)C2`, the Ratio in series [1] was 8.

For `CC(=O)O[C@H]1C(=O)[C@@]2(C)[C@H]([C@H](OC(=O)c3ccccc3)[C@]3(O)C[C@H](OC(=O)[C@H](O)[C@@H](NC(=O)c4ccccc4)c4ccccc4)C(C)=C1C3(C)C)[C@]1(OC(C)=O)CO[C@@H]1C[C@@H]2O` [PACLITAXEL], the IC50 in series [2] is 0.145 µM; in series [3] it was 0.0016 µM.

Regarding `COc1cc(OC)c2c(c1)O[C@H](c1cc(OC)c(OC)c(OC)c1)[C@H](OC(=O)c1ccc(F)c(NC(=O)c3ccc(F)c(NC(=O)c4cc(OC)c(OC)c(OC)c4)c3)c1)C2`, in series [1], the Ratio is listed as 10.8.

Take `CC(=O)Oc1cc(OC(C)=O)c2c(c1)O[C@H](c1cc(OC(C)=O)c(OC(C)=O)c(OC(C)=O)c1)[C@H](OC(=O)c1cc(OC(C)=O)c(OC(C)=O)c(OC(C)=O)c1)C2`: the Ratio in series [1] is recorded as 0.8. Also, the IC50 in series [2] was 31.7 µM; in series [3], 71.5 µM; in the series on L929, 41.4 µM.

With `COc1cc(OC)c2c(c1)O[C@H](c1cc(OC)c(OC)c(OC)c1)[C@H](OC(=O)c1ccc(F)c(NC(C)=O)c1)C2`, the Ratio in series [1] was 9.8. In addition, the IC50 (in series [2]; in series [3]; in the series with L929) was > 100 µM each time.

The values are drawn from ChEMBL document CHEMBL3580553, “Potent and Nontoxic Chemosensitizer of P-Glycoprotein-Mediated Multidrug Resistance in Cancer: Synthesis and Evaluation of Methylated Epigallocatechin, Gallocatechin, and Dihydromyricetin Derivatives” (J Med Chem, 2015).
